Reference: BindingDB's records for doi:10.1016/j.bmc.2014.04.026 (Florida A&M University, 2014)

Target: D(3) dopamine receptor (Homo sapiens, UniProt P35462)
Experiment: Displacement of [3H]N-methylspiperone from human dopamine D3 receptor by PDSP assay

Chain of D(3) dopamine receptor (P35462 as listed by the source): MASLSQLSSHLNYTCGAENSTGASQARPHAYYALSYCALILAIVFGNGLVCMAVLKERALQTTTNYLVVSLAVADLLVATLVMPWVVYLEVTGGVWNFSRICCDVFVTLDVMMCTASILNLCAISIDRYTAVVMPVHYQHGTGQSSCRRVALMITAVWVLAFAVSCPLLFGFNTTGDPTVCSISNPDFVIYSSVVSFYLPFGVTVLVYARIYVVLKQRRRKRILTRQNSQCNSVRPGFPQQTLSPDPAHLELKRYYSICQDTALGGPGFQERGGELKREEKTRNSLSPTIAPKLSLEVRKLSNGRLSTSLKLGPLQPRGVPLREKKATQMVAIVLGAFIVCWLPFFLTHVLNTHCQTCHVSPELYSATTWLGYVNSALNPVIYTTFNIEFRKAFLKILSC

Molecule `Clc1ccc(N2C[C@H]3C[C@@H]2CN3CCCc2cc3ccccc3o2)cc1` has a Ki of 0.671 µM.
